Test results published in ChEMBL document CHEMBL2385056, “Imidazopyrazine Derivatives As Inhibitors of mTOR” (ACS Med Chem Lett, 2013).
pIC50: −log10 of the molar value.

Columns and labels:
mTORC1 = mTORC1 (Homo sapiens, UniProt P42345); test: Inhibition of mTORC1 in human PC3 cells assessed as reduction of phosphorylated 4E-BP1Thr37/46 level after 90 mins by HTRF assay; type: cell-based, PC-3
[1] = Inhibition of mTORC2 in human PC3 cells assessed as reduction of phosphorylated AKT Ser473 level after 90 mins by HTRF assay; type: cell-based; conditions: PC-3, 1.5 h

Compound | pIC50 (mTORC1) | pIC50 [1]
Nc1nc([C@@H]2C[C@H]3CC[C@@H](C2)N3C(=O)c2nnc[nH]2)cn2c(-c3ccc(-c4ncc[nH]4)nc3)cnc12 | < 5.00 | < 5.00
Nc1nc([C@@H]2C[C@H]3CC[C@@H](C2)N3C(=O)c2nnc[nH]2)cn2c(-c3cnn(-c4ccccc4)c3)cnc12 | 5.73 | 5.95
Cn1ccc(-c2ccc(-c3cnc4c(N)nc([C@@H]5C[C@H]6CC[C@@H](C5)N6C(=O)c5nnc[nH]5)cn34)cn2)n1 | 6.00 | 6.00
Nc1nc([C@@H]2C[C@H]3CC[C@@H](C2)N3C(=O)CO)cn2c(-c3ccc(-c4ccccc4)nc3)cnc12 | 7.00 | 7.00
Nc1nc([C@@H]2C[C@H]3CC[C@@H](C2)N3C(=O)c2nnc[nH]2)cn2c(-c3ccc(-c4ccccc4)nc3)cnc12 | 7.00 | 9.00
